# Laboratory results reported in patent publication US9518166B2, “Film forming auxiliary agent composition for emulsion resin” (ADEKA CORPORATION, priority 2013, dated 2016).
# Columns and labels:
# Assay type in all cases: physicochemical
# [1] = Test 2: long-term stability test, resin 1; design: key: ⊚: homogeneous solution; ◯: no separation, but solution was partially heterogeneous (still can be used); Δ: slight separation was confirmed; X: complete separation or sedimentation was confirmed; conditions: 5 mass % in resin 1, one week at 40° C.
# Protocol: (§1) Inventive Products 1 to 14 and Comparative Products 1 to 11 were each compounded at 5 mass % with the test emulsion resins, 80 ml of each product obtained was introduced by 80 ml into a 100-ml screw pipe, closed with a lid and allowed to stay for a week in a thermostat at 40° C. The external appearance of the emulsion resins thereafter was determined according to the following criteria. • ⊚: homogeneous solution • ◯: no separation, but solution was partially heterogeneous (still can be used) • Δ: slight separation was confirmed • X: complete separation or sedimentation was confirmed <Test 3: Water Solubility Confirmation Test>
# [2] = Test 2: long-term stability test, resin 2; design: key: ⊚: homogeneous solution; ◯: no separation, but solution was partially heterogeneous (still can be used); Δ: slight separation was confirmed; X: complete separation or sedimentation was confirmed; conditions: 5 mass % in resin 2, one week at 40° C.
# Protocol: as §1
# Boiling point = assay: Boiling point
SMILES,"Test 2: long-term stability, external appearance [1]","Test 2: long-term stability, external appearance [2]",boiling point (Boiling point) [°C]
"CCCCOCCO [Comparative Product 10, butyl cellosolve]",⊚,⊚,171
"CN1CCCC1=O [Comparative Product 11, N-methylpyrrolidone]",⊚,⊚,202
